Assay results reported in US10327423B2, “Antimicrobial compounds and compositions, and uses thereof” (Akeso Biomedical, Inc., priority 2014, dated 2019).
Entries after “also recorded” stand apart in the source; their conditions may differ.

What was measured:
[1] = system: C. jejuni NCTC 11168; assay: ELISA of C. jejuni binding to histo-blood group antigens (BgAgs); set-up: species or system Campylobacter jejuni; settings: for binding of C. jejuni to Le^b and H-II after growth in medium with Fe-QA: washed away before ELISA, one and four passages
Procedure: Binding of C. jejuni NCTC 11168 to the BgAgs (common ABO histo-blood group antigens), Le^b and H-II was measured after growing the bacteria in a medium that has either Fe-QA at 0.34 mM or 3.4 mM. The binding is measured by washing away the Fe-Q containing medium prior to testing the bacteria by ELISA as described below. Binding was measured after one passage and four passages (4 generations) with Fe-QA included in the medium, and compared to a control without Fe-QA.
The ELISA was performed as follows: BSA-BgAg conjugates were obtained from IsoSep, Tullinge, Sweden. Coupling of BgAgs to 96-well plates (NUNC Immobilizer Amino) was carried out by the addition of 100 μl BSA-BgAg (5 μg/ml unless stated otherwise) in sodium carbonate buffer to each well. Plates were incubated at room temperature for 2 h before unbound reagent was removed by washing three times in PBS-T. All wells were blocked by the addition of […] 1% BSA/PBS and incubated for 2 h at room temperature. After further washing in PBS-T, […] of DIG-tagged bacteria (at OD600 of 0.05) were added to each well and incubated overnight at 4° C. Plates were washed three times in PBS-T before […] anti-digoxigenin-POD solution (Roche Diagnostics; 1 in 5000 diluted in 1% BSA/PBS) was added and incubated for 1 h at room temperature. Plates were again vigorously washed in PBS-T and color developed by adding 100 μl ABTS substrate (Roche). Plates were read with an ELISA reader (Biotek EL800) at an absorbance of 405 nm. Specific binding was determined by subtracting the binding of each strain to BSA (typically OD405 0.07-0.09) from the binding to each BSA-BgAg conjugate. Inhibition assays shown in FIG. 4B were carried out as above but after the removal of the blocking solution, DIG-labeled C. jejuni was pre-incubated for 4 h with an Fe-QA solution (0.34 mM) before being added to each well.

[2] = Growth performance of broilers challenged with Campylobacter dirty litter at day 20; type: in vivo, chicken (Ross 308 male broilers); settings: treatment groups 3, 5, 6, 7 (FeQ) and 8 (FeTyr)
Procedure: (§1) A study was performed to evaluate growth promotion and reduction of Campylobacter carriage using FeQ and FeTyr in Ross 308 male broilers with 7 treatment groups. Each treatment group comprised four replicates of 10 birds per pen (40 birds/treatment group and 4 pens of 10 birds/treatment group), and there were 2 control groups and 5 test groups. All the test groups and one of the control groups were exposed at day 20 of the trial to dirty litter, which tested positive for Campylobacter. This method was used to provide a more natural method to Campylobacter challenge the birds. Thus there was a positive control where one treatment group was challenged with Campylobacter and one negative control group where the birds were not challenged, and five treatment groups that were all challenged with Campylobacter. The total number of birds used in the 7 treatment groups was 280. Treatment group 1 was a negative control where birds just received the commercial feed, and were not challenged with dirty litter containing Campylobacter. Treatment group 2 was the positive control where the birds received the commercial feed, and were challenged with dirty litter containing Campylobacter at day 20. Treatment group 3 received 0.22 g/L of FeQ in their drinking water and 0.22 g/Kg FeQ in their feed during the entire trial, and was challenged with dirty litter containing Campylobacter at day 20. Treatment group 5 received 0.22 g/L of FeQ in their drinking water during the entire trial, and was challenged with dirty litter containing Campylobacter at day 20. Treatment group 6 received 0.22 g/kg FeQ in their feed during the entire trial, and was challenged with dirty litter containing Campylobacter at day 20. Treatment group 7 received 0.022 g/L FeQ in their drinking water during the entire trial, and was challenged with dirty litter containing Campylobacter at day 20. Treatment group 8 received 0.02 g/L FeTyr in their drinking water during the entire trial, and was challenged with dirty litter containing Campylobacter at day 20. The FeTyr was pre-dissolved in DMSO, and diluted to provide a solution of 0.02 g/L of FeTyr in water. (An additional treatment group 4 was terminated due to solubility issues.) […]
The feeding program is show in Table 4. […] All birds were weighed individually and feed weigh backs recorded per pen at day 0, 11, 21, 24 and 42 days.
In order to minimize risk of cross-contamination, standard industry biosecurity measures were used including: disinfecting boots, changing overshoes and gloves between pens/treatments, entering Campylobacter negative pens before entering Campylobacter positive pens, and leaving adjacent pens empty. Daily health, culls, and mortality were recorded. All bird weights were recorded at 0, 11, 21, 24, 33 and 42 days. […]

[3] = system: Campylobacter; assay: Campylobacter carriage in chickens (cfu/g of droppings and caeca samples); type: in vivo; settings: days 0-42, dirty litter challenge
Procedure: as §1, with “20.” for “20. Treatment group 7 received 0.022 g/L FeQ in their drinking water during the entire trial, and was challenged with dirty litter containing Campylobacter at day 20. Treatment group 8 received 0.02 g/L FeTyr in their drinking water during the entire trial, and was challenged with dirty litter containing Campylobacter at day 20. The FeTyr was pre-dissolved in DMSO, and diluted to provide a solution of 0.02 g/L of FeTyr in water. (An additional treatment group 4 was terminated due to solubility issues.)”
Prior to challenging the chickens with dirty litter containing Campylobacter at day 20, each pen was tested for Campylobacter using cloacal swabs. […] Samples were analyzed for blood chemistry, including analysis for alkaline phosphatase, aspartate amino transferase, alanine amino transferase, gamma-glutamyl transferase, lactate dehydrogenase, total protein, albumin, globulin, amylase and glucose.

O=C1[O][Fe]23([O]C(=O)[C@]4(C[C@@H](O)[C@H](O)[C@H](O)C4)[O]2)([O]C(=O)[C@]2(C[C@@H](O)[C@H](O)[C@H](O)C2)[O]3)[O][C@@]12C[C@@H](O)[C@H](O)[C@H](O)C2 [FeQ, a complex of quinic acid with Fe III]
binding of C. jejuni to Le^b and H-II after growth in medium with Fe-QA ([1]; Fe-QA 0.34 mM in medium): statistically significant decrease
binding of C. jejuni to Le^b and H-II after growth in medium with Fe-QA ([1]; Fe-QA 3.4 mM in medium): marked decrease in binding
inhibition of binding of C. jejuni 11168 to BgAgs (Core-I, Core-II, H-I, H-II, Leb, Ley, Lex) ([1]; bacteria pre-incubated 4 h with Fe-QA 0.34 mM): significant inhibition of binding
ABW at day 42 versus positive control (challenged, untreated) [2]: performed better than the positive control
MFCR at day 42 versus positive control (challenged, untreated) [2]: performed better than the positive control
Campylobacter colony forming units per gram of bird droppings at day 42 ([3]; Treatment 7: FeQ 0.022 g/L in drinking water): less of an effect than the other treatment groups
average Campylobacter cfu/g of caeca samples at day 42 versus positive control ([3]; treatment groups 3, 5, 6, 7 (FeQ) and 8 (FeTyr)): lower levels of Campylobacter in their caeca; also recorded: performed better than the positive control
